Results: PMC5908784, “Extracellular loops 2 and 3 of the calcitonin receptor selectively modify agonist binding and efficacy” (Biochemical Pharmacology, 2018)
Residue numbers refer to the chain shown, from its start. Where no end group is shown, it is not given here.

How the values were obtained:
Test in all cases: Homologous whole cell competition binding
Conditions in all cases: homologous competition of 125I-sCT(8-32), whole cells, mean ± S.E.M., SEM
hCTR G369A = molecular target: T1, hCTR G369A (Homo sapiens, UniProt P30988, G369A)
T1 construct: c-Myc (N); expressed in transfected cells
T1 sequence (P30988 25-474 G369A): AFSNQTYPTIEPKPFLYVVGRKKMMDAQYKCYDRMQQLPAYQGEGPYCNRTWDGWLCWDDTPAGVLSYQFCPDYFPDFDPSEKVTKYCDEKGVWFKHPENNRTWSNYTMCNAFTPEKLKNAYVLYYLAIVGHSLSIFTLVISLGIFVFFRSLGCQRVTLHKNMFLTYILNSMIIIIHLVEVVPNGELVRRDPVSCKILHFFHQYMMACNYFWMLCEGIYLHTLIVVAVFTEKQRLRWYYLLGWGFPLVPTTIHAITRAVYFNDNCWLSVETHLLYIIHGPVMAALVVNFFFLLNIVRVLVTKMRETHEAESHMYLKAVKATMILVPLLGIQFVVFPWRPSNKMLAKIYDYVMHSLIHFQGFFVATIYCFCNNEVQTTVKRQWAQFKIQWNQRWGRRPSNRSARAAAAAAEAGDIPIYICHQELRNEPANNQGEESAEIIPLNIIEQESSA
Method in brief: (§1)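 Values are pKi, derived from IC50 of unlabelled sCT(8-32) displacing ^125I-sCT(8-32) (25–100 pM) from whole cells after overnight incubation at 4 °C. Specific binding was scaled between tracer-only total and 1 μM cold-peptide background.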

hCTR P363A = molecular target: T2, hCTR P363A (Homo sapiens, UniProt P30988, P363A)
T2 construct: expressed in transfected cells
T2 sequence (P30988 25-474 P363A): T1 sequence (P30988 25-474 G369A) with P339A, A345G
Method in brief: as §1

hCTR N288A = molecular target: T3, hCTR N288A (Homo sapiens, UniProt P30988, N288A)
T3 construct: expressed in transfected cells
T3 sequence (P30988 25-474 N288A): T1 sequence (P30988 25-474 G369A) with N264A, A345G
Method in brief: as §1

hCTR H296A = molecular target: T4, hCTR H296A (Homo sapiens, UniProt P30988, H296A)
T4 construct: c-Myc (N); expressed in transfected cells
T4 sequence (P30988 25-474 H296A): T1 sequence (P30988 25-474 G369A) with H272A, A345G
Method in brief: as §1

Which Ki (hCTR G369A) does the source give for “VLGKLSQELHKLQTYPRTNTGSGTP-NH2 [sCT(8-32)]” here?
Its Ki is 229 pM.

And the Ki (hCTR P363A)?
The Ki was 355 pM.

And the Ki (hCTR N288A)?
The Ki was 234 pM.

And the Ki (hCTR H296A)?
The Ki was 269 pM.
